Assay results taken from paper PMC9481151, “Discovery of new symmetrical and asymmetrical nitrile-containing 1,4-dihydropyridine derivatives as dual kinases and P-glycoprotein inhibitors: synthesis, in vitro assays, and in silico studies” (Journal of Enzyme Inhibition and Medicinal Chemistry, 2022).

Tests used:
SNB-75 = assay: NCI single dose (10 µM) SRB screen; assay type: cell-based, human; settings: CNS cancer, 48 h
BT-549 = assay: NCI single dose (10 µM) SRB screen; assay type: cell-based, human; settings: breast cancer, 48 h
Staphylococcus aureus = assay: Agar well diffusion method; settings: for zone of inhibition at 1000 µg/mL: Staphylococcus aureus, 24 h, read-out: Diameter of inhibition zone, S. aureus; for % activity index, S. aureus: relative to ciprofloxacin
SK-MEL-28 = assay: NCI single dose (10 µM) SRB screen; assay type: cell-based, human; settings: melanoma, 48 h
SF-295 = assay: NCI single dose (10 µM) SRB screen; assay type: cell-based, human; settings: CNS cancer, 48 h
CCRF-CEM = assay: NCI single dose (10 µM) SRB screen; assay type: cell-based, human; settings: leukaemia, 48 h
RPMI-8226 = assay: NCI single dose (10 µM) SRB screen; assay type: cell-based, human; settings: leukaemia, 48 h
Bacillus subtilis = assay: Agar well diffusion method; settings: for zone of inhibition at 1000 µg/mL: Bacillus subtilis, 24 h, read-out: Diameter of inhibition zone, B. subtilis; for % activity index, B. subtilis: relative to ciprofloxacin
HL-60(TB) = assay: NCI single dose (10 µM) SRB screen; assay type: cell-based, human; settings: leukaemia, 48 h
A549/ATCC = assay: NCI single dose (10 µM) SRB screen; assay type: cell-based, human; settings: non-small cell lung cancer, 48 h
Pseudomonas aeruginosa = assay: Agar well diffusion method; settings: for zone of inhibition at 1000 µg/mL: Pseudomonas aeruginosa, 24 h, read-out: Diameter of inhibition zone, P. aeruginosa; for % activity index, P. aeruginosa: relative to ciprofloxacin
MDA-MB-435 = assay: NCI single dose (10 µM) SRB screen; assay type: cell-based, human; settings: melanoma, 48 h
HOP-62 = assay: NCI single dose (10 µM) SRB screen; assay type: cell-based, human; settings: non-small cell lung cancer, 48 h
SK-OV-3 = assay: NCI single dose (10 µM) SRB screen; assay type: cell-based, human; settings: ovarian cancer, 48 h

| Compound | melting point [°C] | GI% SNB-75 (SNB-75) [%] | GI% BT-549 (BT-549) | zone of inhibition at 1000 µg/mL (Staphylococcus aureus) [mm] | % activity index, S. aureus (Staphylococcus aureus) [%] | GI% SK-MEL-28 (SK-MEL-28) | GI% SF-295 (SF-295) | GI% CCRF-CEM (CCRF-CEM) | GI% RPMI-8226 (RPMI-8226) | zone of inhibition at 1000 µg/mL (Bacillus subtilis) [mm] | % activity index, B. subtilis (Bacillus subtilis) | GI% HL-60(TB) (HL-60(TB)) | GI% A549/ATCC (A549/ATCC) | zone of inhibition at 1000 µg/mL (Pseudomonas aeruginosa) [mm] | % activity index, P. aeruginosa (Pseudomonas aeruginosa) [%] | GI% MDA-MB-435 (MDA-MB-435) | GI% HOP-62 (HOP-62) | GI% SK-OV-3 (SK-OV-3) |
| --- | --- | --- | --- | --- | --- | --- | --- | --- | --- | --- | --- | --- | --- | --- | --- | --- | --- | --- |
| CC1=C(C(=O)OC(C)C)C(c2cccc(C#N)c2)C(C(=O)OC(C)C)=C(C)N1 [Compound 1c, Diisopropyl 4-(3-cyanophenyl)-2,6-dimethyl-1,4-dihydropyridine-3,5-dicarboxylate] | 124 to 125 | 20 | – (Only GI% ≥ 10 are shown) | 11 | 45.8 | – (Only GI% ≥ 10 are shown) | – (Only GI% ≥ 10 are shown) | – (Only GI% ≥ 10 are shown) | 17% | 6 | 26.1% | 29% | 11% | 8 | 34.8 | – (Only GI% ≥ 10 are shown) | – (Only GI% ≥ 10 are shown) | – (Only GI% ≥ 10 are shown) |
| CCOC(=O)C1=C(C)NC(C)=C(C(=O)OCC)C1c1cccc(C#N)c1 [Compound 1b, Diethyl 4-(3-cyanophenyl)-2,6-dimethyl-1,4-dihydropyridine-3,5-dicarboxylate] | 144 to 146 | 38 | – (Only GI% ≥ 10 are shown) | 14 | 58.3 | – (Only GI% ≥ 10 are shown) | – (Only GI% ≥ 10 are shown) | – (Only GI% ≥ 10 are shown) | – (Only GI% ≥ 10 are shown) | 9 | 39.1% | 13% | – (Only GI% ≥ 10 are shown) | 10 | 43.5 | 42% | – (Only GI% ≥ 10 are shown) | – (Only GI% ≥ 10 are shown) |
| COC(=O)C1=C(C)NC(C)=C(C(=O)OC)C1c1cccc(C#N)c1 [Compound 1a, Dimethyl 4-(3-cyanophenyl)-2,6-dimethyl-1,4-dihydropyridine-3,5-dicarboxylate] | 200 to 202 | 24 | – (Only GI% ≥ 10 are shown) | 13 | 54.2 | – (Only GI% ≥ 10 are shown) | – (Only GI% ≥ 10 are shown) | – (Only GI% ≥ 10 are shown) | – (Only GI% ≥ 10 are shown) | 9 | 39.1% | – (Only GI% ≥ 10 are shown) | – (Only GI% ≥ 10 are shown) | 12 | 52.2 | – (Only GI% ≥ 10 are shown) | – (Only GI% ≥ 10 are shown) | – (Only GI% ≥ 10 are shown) |

Continued, in another order:

| melting point [°C] | Compound | GI% SNB-75 (SNB-75) [%] | GI% BT-549 (BT-549) | zone of inhibition at 1000 µg/mL (Staphylococcus aureus) [mm] | % activity index, S. aureus (Staphylococcus aureus) [%] | GI% SK-MEL-28 (SK-MEL-28) | GI% SF-295 (SF-295) | GI% CCRF-CEM (CCRF-CEM) | GI% RPMI-8226 (RPMI-8226) | zone of inhibition at 1000 µg/mL (Bacillus subtilis) [mm] | % activity index, B. subtilis (Bacillus subtilis) | GI% HL-60(TB) (HL-60(TB)) | GI% A549/ATCC (A549/ATCC) | zone of inhibition at 1000 µg/mL (Pseudomonas aeruginosa) [mm] | % activity index, P. aeruginosa (Pseudomonas aeruginosa) [%] | GI% MDA-MB-435 (MDA-MB-435) | GI% HOP-62 (HOP-62) | GI% SK-OV-3 (SK-OV-3) |
| --- | --- | --- | --- | --- | --- | --- | --- | --- | --- | --- | --- | --- | --- | --- | --- | --- | --- | --- |
| 133 to 135 | COC(=O)C1=C(C)NC(C)=C(C(=O)OCC(C)C)C1c1cccc(C#N)c1 (racemic) [Compound 2b, (±)-3-Isobutyl 5-methyl 4-(3-cyanophenyl)-2,6-dimethyl-1,4-dihydropyridine-3,5-dicarboxylate] | 22 | – (Only GI% ≥ 10 are shown) | 9 | 37.5 | – (Only GI% ≥ 10 are shown) | 18% | – (Only GI% ≥ 10 are shown) | – (Only GI% ≥ 10 are shown) | – | – (Values below 25 are of limited value and not shown as they refer either to inactive or non-diffusing compounds) | 18% | – (Only GI% ≥ 10 are shown) | 13 | 56.5 | – (Only GI% ≥ 10 are shown) | – (Only GI% ≥ 10 are shown) | – (Only GI% ≥ 10 are shown) |
| 127 to 128 | COCCOC(=O)C1=C(C)NC(C)=C(C(=O)OC)C1c1cccc(C#N)c1 (racemic) [Compound 2d, (±)-3-(2-Methoxyethyl) 5-methyl 4-(3-cyanophenyl)-2,6-dimethyl-1,4-dihydropyridine-3,5-dicarboxylate] | 15 | – (Only GI% ≥ 10 are shown) | 15 | 62.5 | – (Only GI% ≥ 10 are shown) | – (Only GI% ≥ 10 are shown) | – (Only GI% ≥ 10 are shown) | – (Only GI% ≥ 10 are shown) | 10 | 43.5% | – (Only GI% ≥ 10 are shown) | – (Only GI% ≥ 10 are shown) | 14 | 60.9 | – (Only GI% ≥ 10 are shown) | – (Only GI% ≥ 10 are shown) | – (Only GI% ≥ 10 are shown) |
| 136 to 138 | CCOC(=O)C1=C(C)NC(C)=C(C(=O)OC(C)C)C1c1cccc(C#N)c1 (racemic) [Compound 2h, (±)-3-Ethyl 5-isopropyl 4-(3-cyanophenyl)-2,6-dimethyl-1,4-dihydropyridine-3,5-dicarboxylate] | 15 | – (Only GI% ≥ 10 are shown) | 11 | 45.8 | – (Only GI% ≥ 10 are shown) | – (Only GI% ≥ 10 are shown) | – (Only GI% ≥ 10 are shown) | – (Only GI% ≥ 10 are shown) | 8 | 34.8% | – (Only GI% ≥ 10 are shown) | – (Only GI% ≥ 10 are shown) | 10 | 43.5 | – (Only GI% ≥ 10 are shown) | – (Only GI% ≥ 10 are shown) | – (Only GI% ≥ 10 are shown) |
